Paper PMC4763182 (Scientific Reports, 2016)

Assays:
[1] = system: recombinant histidine-tagged Stx2B subunit (2BH); assay type: binding, Escherichia coli
[2] = system: binding of 125I-Stx2 to HeLa cells; assay type: cell-based
[3] = system: Stx2 cytotoxicity toward HeLa cells

HNPMSFPTPRLY [HN-11]
concentration dependence of binding to 2BH [1]: did not significantly change | inhibitory effect on the uptake of Stx2 [2]: almost no inhibitory effect | inhibitory effect on Stx2 cytotoxicity [3]: Almost no inhibitory effect
